Measured values reported in ChEMBL document CHEMBL3286206, “Conventional and microwave assisted synthesis of pyrazolone Mannich bases possessing anti-inflammatory, analgesic, ulcerogenic effect and antimicrobial properties” (Bioorg Med Chem Lett, 2014).
≈ marks a conversion by molar mass, not a printed value. Calls of active or inactive are those of the source. The rule behind the calls is not given here.

Experiments:
Klebsiella pneumoniae [1] = experiment: Antimicrobial activity against Klebsiella pneumoniae assessed as zone of inhibition by agar diffusion method; type: functional
Rattus norvegicus [2] = experiment: Antiinflammatory activity in albino rat assessed as inhibition of carrageenan-induced paw edema measured as paw thickness at 0.03 mmol/kg, po administered 1 hr prior to carrageenan challenge measured after 6 hrs (reference value: 1.081 +/- 0.257 mm)
Staphylococcus aureus [3] = experiment: Antimicrobial activity against Staphylococcus aureus assessed as zone of inhibition >8 mm by twofold serial dilution method; type: functional
Rattus norvegicus [4] = experiment: Ulcerogenic effect in po dosed rat assessed as lesions of bleedings; type: toxicity, organism-based; settings: in vivo
Rattus norvegicus [5] = experiment: Antiinflammatory activity in albino rat assessed as inhibition of carrageenan-induced paw edema measured as paw thickness at 0.03 mmol/kg, po administered 1 hr prior to carrageenan challenge measured after 4 hrs (reference value: 1.260 +/- 0.172 mm)
Staphylococcus aureus [6] = experiment: Antimicrobial activity against Staphylococcus aureus assessed as zone of inhibition by agar diffusion method; type: functional
Klebsiella pneumoniae [7] = experiment: Antimicrobial activity against Klebsiella pneumoniae assessed as zone of inhibition >8 mm by twofold serial dilution method; type: functional
Mus musculus [8] = experiment: Analgesic activity in mouse assessed as inhibition of acetic acid-induced writhing measured as potency at 0.03 mM/kg; design: scale not given: the % may be the effect or the level left
Mus musculus [9] = experiment: Analgesic activity in mouse assessed as inhibition of acetic acid-induced writhing at 0.03 mM/kg
Escherichia coli [10] = experiment: Antimicrobial activity against Escherichia coli assessed as zone of inhibition by agar diffusion method; type: functional
Rattus norvegicus [11] = experiment: Antiinflammatory activity in albino rat assessed as inhibition of carrageenan-induced paw edema at […], po administered 1 hr prior to carrageenan challenge measured after 6 hrs relative to control; type: functional
Rattus norvegicus [12] = experiment: Antiinflammatory activity in albino rat assessed as inhibition of carrageenan-induced paw edema at […], po administered 1 hr prior to carrageenan challenge measured after 4 hrs relative to control; type: functional
Micrococcus luteus [13] = experiment: Antimicrobial activity against Micrococcus luteus assessed as zone of inhibition >8 mm by twofold serial dilution method; type: functional
Escherichia coli [14] = experiment: Antimicrobial activity against Escherichia coli assessed as zone of inhibition >8 mm by twofold serial dilution method; type: functional
Micrococcus luteus [15] = experiment: Antimicrobial activity against Micrococcus luteus assessed as zone of inhibition by agar diffusion method; type: functional
Staphylococcus aureus [16] = experiment: Antimicrobial activity against Staphylococcus aureus assessed as growth inhibition by agar diffusion method; type: functional
Micrococcus luteus [17] = experiment: Antimicrobial activity against Micrococcus luteus assessed as growth inhibition by agar diffusion method; type: functional

| SMILES | diameter of the inhibition zone (DIZ) (Klebsiella pneumoniae [1]) | Activity (Rattus norvegicus [2]) | MIC (Staphylococcus aureus [3]) | Activity (Rattus norvegicus [4]) | Activity (Rattus norvegicus [5]) | diameter of the inhibition zone (DIZ) (Staphylococcus aureus [6]) | MIC (Klebsiella pneumoniae [7]) | Activity (Mus musculus [8]) | inhibition (INH) (Mus musculus [9]) | diameter of the inhibition zone (DIZ) (Escherichia coli [10]) | inhibition in vivo (Rattus norvegicus [11]) | inhibition in vivo (Rattus norvegicus [12]) | MIC (Micrococcus luteus [13]) | MIC (Escherichia coli [14]) | diameter of the inhibition zone (DIZ) (Micrococcus luteus [15]) | growth inhibition (GI) (Staphylococcus aureus [16]) | growth inhibition (GI) (Micrococcus luteus [17]) |
| --- | --- | --- | --- | --- | --- | --- | --- | --- | --- | --- | --- | --- | --- | --- | --- | --- | --- |
| CC1=NN(C(=O)c2cc3ccccc3oc2=O)C(=O)C1CNc1ccc(O)c(C(=O)O)c1 (stereo unspecified) | 12 mm | 1.939 mm | 115 µM (≈ 50 µg/mL) | Non-toxic | 2.396 mm | 12 mm | 115 µM (≈ 50 µg/mL) | 50.94% | 35.06% | 12 mm | 50.9% | 30.9% | 115 µM (≈ 50 µg/mL) | 57.4 µM (≈ 25 µg/mL) | 12 mm |  |  |
| CC1=NN(C(=O)c2cc3ccccc3oc2=O)C(=O)C1CNc1ccc(C(=O)O)cc1 (stereo unspecified) | 14 mm | 1.081 mm | 59.6 µM (≈ 25 µg/mL) | Non-toxic | 1.26 mm | 12 mm | 119 µM (≈ 50 µg/mL) | 88.68% | 61.04% | 12 mm | 72.6% | 63.6% | 119 µM (≈ 50 µg/mL) | 119 µM (≈ 50 µg/mL) | 18 mm |  |  |
| CC1=NN(C(=O)c2cc3ccccc3oc2=O)C(=O)C1CNc1ccccn1 (stereo unspecified) | 15 mm | 1.961 mm | 66.4 µM (≈ 25 µg/mL) | Toxic | 2.389 mm | 15 mm | 66.4 µM (≈ 25 µg/mL) | 43.4% | 29.87% | 15 mm | 50.3% | 31.1% | 66.4 µM (≈ 25 µg/mL) | 133 µM (≈ 50 µg/mL) | 12 mm |  |  |
| CC1=NN(C(=O)c2cc3ccccc3oc2=O)C(=O)C1CNc1ccc(Cl)cc1 (stereo unspecified) | 12 mm | 1.125 mm |  | Toxic | 1.956 mm | inactive | 61 µM (≈ 25 µg/mL) | 103.78% | 71.43% | 12 mm | 71.5% | 43.5% | 61 µM (≈ 25 µg/mL) | 30.5 µM (≈ 12.5 µg/mL) | 18 mm | inactive |  |
| COc1ccc2c(c1)c(CC(=O)O)c(C)n2C(=O)c1ccc(Cl)cc1 [INDOMETHACIN] |  | 0.985 mm |  |  | 1.144 mm |  |  | 100% | 68.83% |  | 76% | 67.8% |  |  |  |  |  |
| CC1=NN(C(=O)c2cc3ccccc3oc2=O)C(=O)C1CNc1cccc(S(N)(=O)=O)c1 (stereo unspecified) | 12 mm | 0.793 mm | 55 µM (≈ 25 µg/mL) | Non-toxic | 1.116 mm | 18 mm | 55 µM (≈ 25 µg/mL) | 49.06% | 33.77% | 12 mm | 79.9% | 67.8% |  | 55 µM (≈ 25 µg/mL) | inactive |  | inactive |
